Assay results: ChEMBL document CHEMBL1201862, “PubChem BioAssay data set” (2004)
Several values for one entry are separate records, joined by “and”; a condition that tells them apart may be missing. Equal values may be shown once. Activity calls are given as the source filed them.

Columns and labels:
Cytochrome P450 2C19 = Cytochrome P450 2C19 (Homo sapiens, UniProt P33261); assay: Cytochrome panel assay with activity outcomes. Panel member name: p450-cyp2c19 Compounds with AC50 equal or less than 10 uM are considered active; type: functional
Cytochrome P450 2D6 = Cytochrome P450 2D6 (Homo sapiens, UniProt P10635);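 also: CYP2D6 member of a cytochrome P450 panel assay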
[1] = inhibitors of intracellular T. cruzi replication, confirmation, NIH3T3 host cells, beta-gal luminescence (AID 2044); type: functional, cell-based;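 also: intracellular parasites grown in NIH/3T3 mouse fibroblasts as host cells; luminescent beta-galactosidase reporter signal from transgenic T. cruzi replicating inside host cells; inhibitors lower the luminescence signal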
[2] = cytotoxicity toward NIH3T3 fibroblasts, dose response, counter-screen, cell-based, ATP luminescence, mouse fibroblasts (AID 2010); type: functional;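 also: cells exposed to compound for about 90 hours before reading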
Cytochrome P450 1A2 = target: T1, Cytochrome P450 1A2 (Homo sapiens, UniProt P05177);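 also: PubChem cytochrome P450 panel assay, CYP1A2 panel member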
T1 sequence (P05177 whole entry): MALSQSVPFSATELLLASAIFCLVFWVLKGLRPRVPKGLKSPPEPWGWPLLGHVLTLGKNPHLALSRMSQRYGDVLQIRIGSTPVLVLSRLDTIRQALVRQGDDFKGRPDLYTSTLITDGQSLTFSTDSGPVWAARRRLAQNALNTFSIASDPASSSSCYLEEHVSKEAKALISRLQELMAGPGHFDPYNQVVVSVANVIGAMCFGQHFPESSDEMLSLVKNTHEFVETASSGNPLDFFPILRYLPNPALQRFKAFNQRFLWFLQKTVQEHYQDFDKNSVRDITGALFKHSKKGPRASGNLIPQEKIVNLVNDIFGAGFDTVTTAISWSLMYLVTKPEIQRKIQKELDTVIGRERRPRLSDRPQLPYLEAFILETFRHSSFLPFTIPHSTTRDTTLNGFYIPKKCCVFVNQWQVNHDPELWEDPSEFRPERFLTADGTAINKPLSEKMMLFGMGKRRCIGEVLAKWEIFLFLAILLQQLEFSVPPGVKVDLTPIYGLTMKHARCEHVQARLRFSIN

Cytochrome P450 2C9 = Cytochrome P450 2C9 (Homo sapiens, UniProt P11712)
Chain of Cytochrome P450 2C9 (P11712 whole entry): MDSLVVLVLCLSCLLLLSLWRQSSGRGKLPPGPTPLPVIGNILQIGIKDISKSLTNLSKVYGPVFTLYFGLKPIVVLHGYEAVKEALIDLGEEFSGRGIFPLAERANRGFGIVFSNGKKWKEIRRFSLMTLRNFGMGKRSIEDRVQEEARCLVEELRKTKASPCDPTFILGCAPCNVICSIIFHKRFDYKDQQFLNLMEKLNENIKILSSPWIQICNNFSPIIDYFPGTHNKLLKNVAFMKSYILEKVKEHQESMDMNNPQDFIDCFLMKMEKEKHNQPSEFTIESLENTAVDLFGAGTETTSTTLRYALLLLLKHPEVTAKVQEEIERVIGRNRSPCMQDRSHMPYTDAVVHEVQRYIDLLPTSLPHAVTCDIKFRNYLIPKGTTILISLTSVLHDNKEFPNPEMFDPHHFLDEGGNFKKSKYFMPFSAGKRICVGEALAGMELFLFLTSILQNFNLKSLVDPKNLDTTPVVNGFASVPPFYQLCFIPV

Chain of Cytochrome P450 2C19 (P33261 whole entry): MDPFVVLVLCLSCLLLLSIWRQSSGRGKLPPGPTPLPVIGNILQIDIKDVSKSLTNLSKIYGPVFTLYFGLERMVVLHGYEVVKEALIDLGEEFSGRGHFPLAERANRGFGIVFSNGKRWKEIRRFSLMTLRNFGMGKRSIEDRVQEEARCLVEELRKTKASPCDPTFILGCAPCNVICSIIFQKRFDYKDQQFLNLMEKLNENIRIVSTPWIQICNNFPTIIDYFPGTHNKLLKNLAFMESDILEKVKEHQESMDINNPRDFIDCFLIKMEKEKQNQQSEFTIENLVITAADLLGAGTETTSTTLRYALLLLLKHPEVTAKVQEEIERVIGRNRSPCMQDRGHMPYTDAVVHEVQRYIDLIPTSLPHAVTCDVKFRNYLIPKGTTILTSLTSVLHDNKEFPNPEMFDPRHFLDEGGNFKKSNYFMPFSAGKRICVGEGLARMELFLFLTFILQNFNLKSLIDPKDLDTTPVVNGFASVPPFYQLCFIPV
Chain of Cytochrome P450 2D6 (P10635 whole entry): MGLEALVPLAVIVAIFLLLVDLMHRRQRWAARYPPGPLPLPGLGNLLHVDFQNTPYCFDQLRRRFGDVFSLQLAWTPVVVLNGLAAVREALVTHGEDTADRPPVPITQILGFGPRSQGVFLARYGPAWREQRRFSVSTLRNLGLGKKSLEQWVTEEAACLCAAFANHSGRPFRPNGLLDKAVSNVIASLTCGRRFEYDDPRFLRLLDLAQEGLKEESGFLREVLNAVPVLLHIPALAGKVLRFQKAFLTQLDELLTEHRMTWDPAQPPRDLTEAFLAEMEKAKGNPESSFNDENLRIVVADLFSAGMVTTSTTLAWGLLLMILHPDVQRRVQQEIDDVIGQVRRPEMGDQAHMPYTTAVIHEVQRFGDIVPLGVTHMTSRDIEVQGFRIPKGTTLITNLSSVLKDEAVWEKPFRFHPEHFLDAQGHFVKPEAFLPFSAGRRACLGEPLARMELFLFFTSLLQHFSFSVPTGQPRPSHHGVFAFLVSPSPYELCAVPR

COC(=O)[C@@]1(Cc2ccc(F)cc2)[C@H]2c3cc(C(=O)N(C)C)n(CCO)c3C[C@H]2CN1C(=O)c1ccccc1
AC50 (Cytochrome P450 2C19; read-out: AC50): 25.1 µM (inconclusive)
AC50 (Cytochrome P450 2D6): 25.1 µM (inconclusive)

O=c1[nH]n(-c2cccc(Cl)c2)c2ncccc12
AC50 (Cytochrome P450 2C19; read-out: AC50): 39.8 µM (inconclusive)

COc1ccc2c(c1)s/c(=N/C(=O)CS(=O)(=O)c1ccc(F)cc1)n2C
EC50 [1]: 0.328 µM (active)
EC50 [2]: > 30 µM (not active)

NC(=O)[C@@H]1CCCN1Cc1ccc2c(c1)OCO2
AC50 (Cytochrome P450 2C19; read-out: AC50): 5.01 µM (inconclusive)
AC50 (Cytochrome P450 2D6): 3.98 µM (inconclusive)
AC50 (Cytochrome P450 1A2): 3.16 µM (inconclusive)

Cc1ccc(C)c(C(=O)CN2C(=O)c3ccccc3S2(=O)=O)c1
AC50 (Cytochrome P450 2D6): 0.631 µM (inconclusive)

COc1cccc(NC(=O)CSc2nnc(CN3CCOCC3)n2C)c1
AC50 (Cytochrome P450 2C19; read-out: AC50): 28.2 µM (inconclusive)

CCn1ccc(C(=O)Oc2ccc(Cl)cc2)n1
AC50 (Cytochrome P450 2C19; read-out: AC50): 11.2 µM (inconclusive)
AC50 (Cytochrome P450 2D6): 22.4 µM (inconclusive)
AC50 (Cytochrome P450 2C9): 8.91 µM (inconclusive)

Cc1cccc(CNc2nc(-c3c(C)noc3C)nc3ccccc23)c1
AC50 (Cytochrome P450 2C19; read-out: AC50): 3.16 µM (inconclusive)
AC50 (Cytochrome P450 2C9): 0.631 µM (inconclusive)

C[N+](C)([O-])CCC=C1c2ccccc2CCc2ccccc21 [AMITRIPTYLINOXIDE]
AC50 (Cytochrome P450 1A2): 0.794 µM (inconclusive)

O=C(O)c1ccccc1Nc1ccccc1 [FENAMIC ACID]
AC50 (Cytochrome P450 1A2): 15.8 µM (inconclusive)
AC50 (Cytochrome P450 2C9): 15.8 µM (inconclusive)

COc1ccc(OC)c(CNc2ccc3c(c2)CCC3)c1
EC50 [1]: 2.08 µM (active)
EC50 [2]: > 60 µM (not active)

CCOC(=O)N1CCN(S(=O)(=O)c2ccc3ncc(C(=O)O)c(O)c3c2)CC1
AC50 (Cytochrome P450 2C9): 15.8 µM (inconclusive)

COc1cc(C(=O)Nc2nc(-c3ccc(F)cc3)cs2)ccc1OCC(=O)N1CCOCC1
EC50 [1]: 1.36 µM (active)
EC50 [2]: > 60 µM (not active)

COc1cc(CCN2C(=O)c3cccc4cccc(c34)C2=O)c(S(=O)(=O)N2CCC(C)CC2)cc1OC
EC50 [1]: 1.51 µM (active)
EC50 [2]: > 60 µM (not active)

CCNc1ncc2nc(C)c(=O)n(C[C@H]3CCCO3)c2n1
AC50 (Cytochrome P450 2D6): 39.8 µM (inconclusive)

Cc1cn2c(-c3ccncc3)nnc2s1
AC50 (Cytochrome P450 1A2): 10 µM (inconclusive)

CCCCCCCNC(=O)c1cc(-c2ccncc2)nc2ccccc12
EC50 [1]: 2.98 µM (active)
EC50 [2]: > 60 µM (not active)

CCOC(=O)c1cc(C#N)c(N2CCN(C)CC2)nc1-c1ccccc1
EC50 [1]: 1.3 µM (active)
EC50 [2]: > 60 µM (not active)

CCn1c(=O)c2c(nc3n2CCS3)n(C)c1=O
AC50 (Cytochrome P450 2C19; read-out: AC50): 10 µM (inconclusive)
AC50 (Cytochrome P450 2C9): 0.00891 µM (inconclusive)

O=C(NCCOC12CC3CC(CC(C3)C1)C2)c1cccc(Br)c1
AC50 (Cytochrome P450 1A2): 17.8 µM (inconclusive)

Cc1ccc(-c2nnc(-c3ccccc3S(=O)(=O)Cc3ccc(Cl)cc3)o2)cc1
AC50 (Cytochrome P450 2C19; read-out: AC50): 7.94 µM (inconclusive)
AC50 (Cytochrome P450 2D6): 0.0355 µM (inconclusive)
AC50 (Cytochrome P450 2C9): 1.78 µM (inconclusive)

CC(C)C(=O)NCCn1ccc2ccccc21
AC50 (Cytochrome P450 1A2): 20 µM (inconclusive)

CN(C)c1ccc(/C=C2/C(=O)N(c3ccc([N+](=O)[O-])cc3)N=C2N2CCOCC2)cc1
AC50 (Cytochrome P450 2C19; read-out: AC50): 0.0224 µM (inconclusive)

CCOc1cc(NC(=O)CC(C)C)c(OCC)cc1N=C(S)Nc1cccc(C)c1
AC50 (Cytochrome P450 2C19; read-out: AC50): 2.51 µM (inconclusive)

O=S(=O)(c1ccc(F)cc1)n1ccc(-c2cnc(-c3ccccc3)s2)n1
AC50 (Cytochrome P450 2D6): 17.8 µM (inconclusive)

Cc1nc2cnc(N3CCN(C)CC3)nc2n(CCC#N)c1=O
AC50 (Cytochrome P450 1A2): 12.6 µM (inconclusive)

COc1ccc(OC)c2sc(N3CCN(C(=O)c4ccc([N+](=O)[O-])s4)CC3)nc12
EC50 [1]: 1.8 µM (active)
EC50 [2]: > 60 µM (not active)

CN(C)CCCNc1c2c(nc3ccc(Cl)cc13)CCCC2
AC50 (Cytochrome P450 1A2): 3.16 µM (inconclusive)

c1ccc2c(c1)ncn2-c1ccc(-c2ccnc(-c3ccncc3)n2)cc1
AC50 (Cytochrome P450 2D6): 1.12 µM (inconclusive)

Cc1cc(C)n(-c2nc(NC(C)C)nc(NC(C)C)n2)n1
AC50 (Cytochrome P450 2C19; read-out: AC50): 35.5 µM (inconclusive)

CCC(C)(C(=O)NC1CCCC1)N(C(=O)c1ccccn1)c1ccccc1 (configuration not stated)
AC50 (Cytochrome P450 2C19; read-out: AC50): 8.91 µM (inconclusive)
AC50 (Cytochrome P450 1A2): 10 µM (inconclusive)

CCNc1ncc2nc(-c3ccc(Cl)cc3)c(=O)n(C)c2n1
AC50 (Cytochrome P450 2D6): 25.1 µM (inconclusive)

Cc1ccc(Cl)cc1N=C(S)N(Cc1ccccc1)Cc1cccnc1
EC50 [1]: 0.785 µM (active)
EC50 [2]: > 60 µM (not active)

CCCCNC(=O)C1CC(=O)N(CCC(C)C)C1 (configuration not stated)
AC50 (Cytochrome P450 2C19; read-out: AC50): 25.1 µM (inconclusive)

O=C(N1CCOCC1)N1CCN(c2ccccc2)CC1
AC50 (Cytochrome P450 2C9): 4.47 µM (inconclusive)

Cc1cccc(NC(=O)CSc2nc3ccccc3c3nc(CCc4c(C)n[nH]c4C)nn23)c1
AC50 (Cytochrome P450 2D6): 8.91 µM (inconclusive)

CCOC(=O)CNc1nc(C(C)(C)C)nc2c1nnn2Cc1ccccc1Cl
EC50 [1]: 3.11 µM (active)
EC50 [2]: > 60 µM (not active)

COC(=O)[C@@]1(Cc2ccc(F)cc2)[C@H]2c3cc(C(=O)N4CCCC4)n(CCN4CNCC4=O)c3C[C@H]2CN1C(=O)c1ccccc1
AC50 (Cytochrome P450 2C19; read-out: AC50): 39.8 µM (inconclusive)
AC50 (Cytochrome P450 2D6): 39.8 µM (inconclusive)
AC50 (Cytochrome P450 1A2): 15.8 µM (inconclusive)

COc1ccc(Cc2nccc3cc(OC)c(OC)cc23)cc1OC [PAPAVERINE]
AC50 (Cytochrome P450 2C19; read-out: AC50): 10 µM (inconclusive) and 3.98 µM (inconclusive)
AC50 (Cytochrome P450 2D6): 10 µM (inconclusive) and 25.1 µM (inconclusive)
AC50 (Cytochrome P450 1A2): 10 µM (inconclusive) and 25.1 µM (inconclusive)

CC(C)c1cc(C(C)C)c(S(=O)(=O)N2c3ccccc3[C@@]3(Br)C[C@H]4C(=O)N[C@@H](Cc5ccccc5)C(=O)N4[C@@H]23)c(C(C)C)c1
EC50 [1]: 2.08 µM (active)
EC50 [2]: > 60 µM (not active)

O=c1cnc2cnc(Nc3ccccc3)nc2n1Cc1cccs1
AC50 (Cytochrome P450 2C9): 3.16 µM (inconclusive)

Cc1oc(-c2ccccc2Cl)nc1CN1CCCCC1c1cccnc1 (configuration not stated)
EC50 [1]: 1.2 µM (active)
EC50 [2]: > 60 µM (inconclusive)

c1cncc(CNc2ncncc2-c2ccc3c(c2)OCO3)c1
AC50 (Cytochrome P450 2C9): 0.794 µM (inconclusive)

Cc1cccc(-c2nsc(SCC(=O)Nc3nccs3)n2)c1
AC50 (Cytochrome P450 2D6): 8.91 µM (inconclusive)

Cc1ccc(C(=O)Nc2cccc(-c3cnc4ccccc4n3)c2)cc1
AC50 (Cytochrome P450 2C19; read-out: AC50): 1.58 µM (inconclusive)
AC50 (Cytochrome P450 2C9): 1 µM (inconclusive)

Cc1cnc(CNc2ncnc3ccc(-c4ccc(C(=O)N(C)C)cc4)cc23)cn1
AC50 (Cytochrome P450 1A2): 15.8 µM (inconclusive)

O=C(CN1CCC(c2nc3ccccc3s2)CC1)NCc1ccccc1
EC50 [1]: 0.237 µM (active)
EC50 [2]: > 60 µM (not active)

COC(=O)CNC(=O)CN1C(=O)N(c2ccc(Cl)cc2)C(N(O)C(=O)Nc2ccc(Cl)cc2)C1(C)C (configuration not stated)
AC50 (Cytochrome P450 2D6): 15.8 µM (inconclusive)
AC50 (Cytochrome P450 1A2): 22.4 µM (inconclusive)

Cc1nc(NC(=O)c2ccccc2)sc1-c1csc(Nc2ccc(Cl)cc2Cl)n1
AC50 (Cytochrome P450 2D6): 12.6 µM (inconclusive)

CC(CC(=O)N1CCN(c2ccc(C(F)(F)F)cn2)CC1)n1ccnc1 (configuration not stated)
EC50 [1]: 1.51 µM (active)
EC50 [2]: > 60 µM (not active)

CC(=O)NCCC(=O)Nc1nc(-c2ccc3ccccc3c2)cs1
EC50 [1]: 2 µM (active)
EC50 [2]: > 60 µM (not active)

CN1CCN(c2ncc3ncc(=O)n(CCC#N)c3n2)CC1
AC50 (Cytochrome P450 2C19): inconclusive
AC50 (Cytochrome P450 1A2): 31.6 µM (inconclusive)

O=C(c1cnccn1)N1CCC2(CCN(Cc3ccncc3)CC2)CC1
AC50 (Cytochrome P450 1A2): 25.1 µM (inconclusive)

COc1ccc2c(c1)c(C(=O)N/N=C/c1cccc(Br)c1)c(C)n2C
EC50 [1]: 0.324 µM (active)
EC50 [2]: > 60 µM (not active)
